According to article PMC10261806, “Development of lentil peptides with potent antioxidant, antihypertensive, and antidiabetic activities along with umami taste” (Food Science & Nutrition, 2023):

Target: T1, rat intestinal α-glucosidase
T1 construct: gene Si; native commercial rat intestinal preparation (Sigma I1630, usually intestinal acetone powder)
Test: p-nitrophenyl-α-D-glucopyranoside hydrolysis, absorbance at […] nm
Type: biochemical
Settings: 5 mM PNPG stock, pH 6.8-6.9, 37 °C, 10 min preincubation; positive control

IC50 of inhibitory activity / α-Glucosidase: 510 ± 70 µg/mL
Structure (SMILES): C[C@H]1O[C@H](O[C@H]2[C@H](O)[C@@H](O)[C@@H](O[C@H]3[C@H](O)[C@@H](O)C(O)O[C@@H]3CO)O[C@@H]2CO)[C@H](O)[C@@H](O)[C@@H]1N[C@H]1C=C(CO)[C@@H](O)[C@H](O)[C@H]1O (stereo partly shown) [acarbose]
